Patent US10479780B2, “Aminopyrazole derivatives” (Chugai Seiyaku Kabushiki Kaisha, priority 2015, dated 2019)
pIC50: −log10 of the molar value.

Legend:
Assay type in all cases: biochemical
[1] = biological target: T1, human Yes1 enzyme (Homo sapiens, UniProt P07947); test: Yes1 enzyme inhibitory activity (time-resolved fluorometry, biotinylated peptide phosphorylation); details: biotinylated peptide phosphorylation, read-out: YES_IC50
T1 construct: made in house
How it was run: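 Inhibition was expressed against a compound-free control to give IC50, using TR-FRET read-out (Eu-cryptate anti-pTyr antibody, streptavidin-XL665).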

[2] = biological target: T2, human Src enzyme (Homo sapiens, UniProt P12931); test: Src enzyme inhibitory activity (time-resolved fluorometry, biotinylated peptide phosphorylation); details: biotinylated peptide phosphorylation, read-out: SRC_IC50
T2 construct: purchased Carna Biosciences, Inc. 08-173
T2 sequence (P12931 whole entry): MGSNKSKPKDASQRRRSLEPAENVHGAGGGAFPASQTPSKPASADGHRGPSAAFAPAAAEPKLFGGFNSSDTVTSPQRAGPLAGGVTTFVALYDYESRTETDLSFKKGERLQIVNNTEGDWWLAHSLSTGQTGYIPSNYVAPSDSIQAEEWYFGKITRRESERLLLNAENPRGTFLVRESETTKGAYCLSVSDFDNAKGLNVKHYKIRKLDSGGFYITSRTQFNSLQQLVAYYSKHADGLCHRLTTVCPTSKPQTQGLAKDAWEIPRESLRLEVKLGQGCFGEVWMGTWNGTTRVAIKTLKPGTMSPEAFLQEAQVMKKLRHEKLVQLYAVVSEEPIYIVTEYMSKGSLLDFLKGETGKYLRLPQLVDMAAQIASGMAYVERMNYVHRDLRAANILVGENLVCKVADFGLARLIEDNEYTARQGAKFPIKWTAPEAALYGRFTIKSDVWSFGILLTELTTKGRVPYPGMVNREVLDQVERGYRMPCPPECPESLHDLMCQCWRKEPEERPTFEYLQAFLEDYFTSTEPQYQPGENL
How it was run: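 Compounds were tested for blocking tyrosine phosphorylation of a biotinylated peptide substrate by recombinant human Src. Phosphorylated product was quantified by time-resolved fluorometry using europium cryptate and XL665 conjugates, and IC50 was calculated against the compound-free control.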

[3] = biological target: T3, human Lck enzyme (Homo sapiens, UniProt P06239); test: Lck enzyme inhibitory activity (time-resolved fluorometry, biotinylated peptide phosphorylation); details: biotinylated peptide phosphorylation, read-out: LCK_IC50
T3 construct: purchased Carna Biosciences, Inc. 08-170
T3 sequence (P06239 whole entry): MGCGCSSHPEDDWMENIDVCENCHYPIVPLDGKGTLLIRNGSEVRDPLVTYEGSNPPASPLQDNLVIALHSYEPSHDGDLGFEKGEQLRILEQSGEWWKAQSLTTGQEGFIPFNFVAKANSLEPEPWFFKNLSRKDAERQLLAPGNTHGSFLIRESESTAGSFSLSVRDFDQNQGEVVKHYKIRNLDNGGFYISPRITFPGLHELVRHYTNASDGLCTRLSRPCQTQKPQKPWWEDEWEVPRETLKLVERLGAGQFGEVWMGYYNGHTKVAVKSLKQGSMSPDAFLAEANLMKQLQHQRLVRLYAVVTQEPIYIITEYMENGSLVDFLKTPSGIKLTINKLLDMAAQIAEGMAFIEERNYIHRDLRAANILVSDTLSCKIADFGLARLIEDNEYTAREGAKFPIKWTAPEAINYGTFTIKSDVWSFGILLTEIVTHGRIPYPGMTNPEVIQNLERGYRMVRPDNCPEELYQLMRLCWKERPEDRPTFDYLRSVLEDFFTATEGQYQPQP
How it was run: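 Readout pairs a europium cryptate-labelled anti-phosphotyrosine antibody with XL665-streptavidin, measured by time-resolved fluorescence. IC50 derived from percent inhibition against untreated controls.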

T1 sequence (P07947 whole entry): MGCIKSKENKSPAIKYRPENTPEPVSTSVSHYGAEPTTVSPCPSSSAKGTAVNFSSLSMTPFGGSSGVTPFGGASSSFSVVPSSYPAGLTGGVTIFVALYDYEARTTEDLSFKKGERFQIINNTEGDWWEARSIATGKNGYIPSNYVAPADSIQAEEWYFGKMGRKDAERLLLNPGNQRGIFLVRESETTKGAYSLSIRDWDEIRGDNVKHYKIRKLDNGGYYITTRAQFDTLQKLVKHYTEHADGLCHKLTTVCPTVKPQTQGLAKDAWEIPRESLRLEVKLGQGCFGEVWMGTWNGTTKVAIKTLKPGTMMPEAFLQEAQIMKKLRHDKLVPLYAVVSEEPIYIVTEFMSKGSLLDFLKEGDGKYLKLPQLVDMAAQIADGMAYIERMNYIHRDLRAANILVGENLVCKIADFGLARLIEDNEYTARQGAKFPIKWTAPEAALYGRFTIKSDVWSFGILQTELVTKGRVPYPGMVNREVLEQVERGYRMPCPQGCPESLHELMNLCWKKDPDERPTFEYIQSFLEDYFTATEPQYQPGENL

Row | pIC50 [1] | pIC50 [2] | pIC50 [3] | Compound
1 | 8.47 | 7.60 | 7.89 | Cc1cc(Oc2ccccc2F)cc(F)c1-n1ncc(C(=O)c2cc3cc(OC(F)F)c(C4CCN(S(C)(=O)=O)CC4)cc3[nH]2)c1N [Example 4-17-006, [5-amino-1-[2-fluoro-4-(2-fluorophenoxy)-6-methylphenyl]pyrazol-4-yl]-[5-(difluoromethoxy)-6-(1-methylsulfonylpiperidin-4-yl)-1H-indol-2-yl]methanone]
2 | 8.41 | 7.66 | 7.92 | Cc1cc(Oc2ccccc2F)cc(F)c1-n1ncc(C(=O)c2cc3cc(OC(F)F)c(C4CCN(S(=O)(=O)C5CC5)CC4)cc3[nH]2)c1N [Example 4-17-007, [5-amino-1-[2-fluoro-4-(2-fluorophenoxy)-6-methylphenyl]pyrazol-4-yl]-[6-(1-cyclopropylsulfonylpiperidin-4-yl)-5-(difluoromethoxy)-1H-indol-2-yl]methanone]
3 | 8.80 | 7.89 | 8.26 | CC(=O)N1CCC(c2cc3[nH]c(C(=O)c4cnn(-c5cnc(Oc6ccccc6F)cc5C)c4N)cc3cc2OC(F)F)CC1 [Example 4-17-008, 1-[4-[2-[5-amino-1-[6-(2-fluorophenoxy)-4-methylpyridin-3-yl]pyrazole-4-carbonyl]-5-(difluoromethoxy)-1H-indol-6-yl]piperidin-1-yl]ethanone]
4 | 8.74 | 7.85 | 8.31 | Cc1cc(Oc2ccccc2F)ncc1-n1ncc(C(=O)c2cc3cc(OC(F)F)c(C4CCN(S(C)(=O)=O)CC4)cc3[nH]2)c1N [Example 4-17-009, [5-amino-1-[6-(2-fluorophenoxy)-4-methylpyridin-3-yl]pyrazol-4-yl]-[5-(difluoromethoxy)-6-(1-methylsulfonylpiperidin-4-yl)-1H-indol-2-yl]methanone]
5 | 8.70 | 7.00 | 7.35 | Cc1cc(Oc2ccccc2F)ncc1-n1ncc(C(=O)c2cc3cc(OC(F)F)c(C4CCN(S(=O)(=O)C5CC5)CC4)cc3[nH]2)c1N [Example 4-17-010, [5-amino-1-[6-(2-fluorophenoxy)-4-methylpyridin-3-yl]pyrazol-4-yl]-[6-(1-cyclopropylsulfonylpiperidin-4-yl)-5-(difluoromethoxy)-1H-indol-2-yl]methanone]
6 | 7.89 | 7.37 | 7.64 | CC(=O)N1CCC(c2cc3[nH]c(C(=O)c4cnn(-c5cnc(Oc6c(F)cccc6F)cc5C)c4N)cc3cc2OC(F)F)CC1 [Example 4-17-011, 1-[4-[2-[5-amino-1-[6-(2,6-difluorophenoxy)-4-methylpyridin-3-yl]pyrazole-4-carbonyl]-5-(difluoromethoxy)-1H-indol-6-yl]piperidin-1-yl]ethanone]
7 | 7.80 | 7.35 | 7.52 | Cc1cc(Oc2c(F)cccc2F)ncc1-n1ncc(C(=O)c2cc3cc(OC(F)F)c(C4CCN(S(C)(=O)=O)CC4)cc3[nH]2)c1N [Example 4-17-012, [5-amino-1-[6-(2,6-difluorophenoxy)-4-methylpyridin-3-yl]pyrazol-4-yl]-[5-(difluoromethoxy)-6-(1-methylsulfonylpiperidin-4-yl)-1H-indol-2-yl]methanone]
8 | 7.77 | 7.34 | 7.43 | Cc1cc(Oc2c(F)cccc2F)ncc1-n1ncc(C(=O)c2cc3cc(OC(F)F)c(C4CCN(S(=O)(=O)C5CC5)CC4)cc3[nH]2)c1N [Example 4-17-013, [5-amino-1-[6-(2,6-difluorophenoxy)-4-methylpyridin-3-yl]pyrazol-4-yl]-[6-(1-cyclopropylsulfonylpiperidin-4-yl)-5-(difluoromethoxy)-1H-indol-2-yl]methanone]
9 | 8.35 | 7.57 | 7.89 | CC(=O)N1CCC(c2cc3[nH]c(C(=O)c4cnn(-c5ccc(Oc6ccccc6F)cc5C)c4N)cc3cc2OCC(F)F)CC1 [Example 4-17-014, 1-[4-[2-[5-amino-1-[4-(2-fluorophenoxy)-2-methylphenyl]pyrazole-4-carbonyl]-5-(2,2-difluoroethoxy)-1H-indol-6-yl]piperidin-1-yl]ethanone]
10 | 8.30 | 7.85 | 7.85 | Cc1cc(Oc2ccccc2F)ccc1-n1ncc(C(=O)c2cc3cc(OCC(F)F)c(C4CCN(S(C)(=O)=O)CC4)cc3[nH]2)c1N [Example 4-17-015, [5-amino-1-[4-(2-fluorophenoxy)-2-methylphenyl]pyrazol-4-yl]-[5-(2,2-difluoroethoxy)-6-(1-methylsulfonylpiperidin-4-yl)-1H-indol-2-yl]methanone]
11 | 8.19 | 7.82 | 7.92 | Cc1cc(Oc2ccccc2F)ccc1-n1ncc(C(=O)c2cc3cc(OCC(F)F)c(C4CCN(S(=O)(=O)C5CC5)CC4)cc3[nH]2)c1N [Example 4-17-016, [5-amino-1-[4-(2-fluorophenoxy)-2-methylphenyl]pyrazol-4-yl]-[6-(1-cyclopropylsulfonylpiperidin-4-yl)-5-(2,2-difluoroethoxy)-1H-indol-2-yl]methanone]
12 | 8.68 | 7.77 | 8.24 | CC(=O)N1CCC(c2cc3[nH]c(C(=O)c4cnn(-c5c(C)cc(Oc6ccccc6F)cc5F)c4N)cc3cc2OCC(F)F)CC1 [Example 4-17-017, 1-[4-[2-[5-amino-1-[2-fluoro-4-(2-fluorophenoxy)-6-methylphenyl]pyrazole-4-carbonyl]-5-(2,2-difluoroethoxy)-1H-indol-6-yl]piperidin-1-yl]ethanone]
13 | 8.62 | 7.72 | 7.96 | Cc1cc(Oc2ccccc2F)cc(F)c1-n1ncc(C(=O)c2cc3cc(OCC(F)F)c(C4CCN(S(C)(=O)=O)CC4)cc3[nH]2)c1N [Example 4-17-018, [5-amino-1-[2-fluoro-4-(2-fluorophenoxy)-6-methylphenyl]pyrazol-4-yl]-[5-(2,2-difluoroethoxy)-6-(1-methylsulfonylpiperidin-4-yl)-1H-indol-2-yl]methanone]
14 | 8.49 | 7.74 | 8.04 | Cc1cc(Oc2ccccc2F)cc(F)c1-n1ncc(C(=O)c2cc3cc(OCC(F)F)c(C4CCN(S(=O)(=O)C5CC5)CC4)cc3[nH]2)c1N [Example 4-17-019, [5-amino-1-[2-fluoro-4-(2-fluorophenoxy)-6-methylphenyl]pyrazol-4-yl]-[6-(1-cyclopropylsulfonylpiperidin-4-yl)-5-(2,2-difluoroethoxy)-1H-indol-2-yl]methanone]
15 | 9.09 | 8.08 | 8.48 | CC(=O)N1CCC(c2cc3[nH]c(C(=O)c4cnn(-c5cnc(Oc6ccccc6F)cc5C)c4N)cc3cc2OCC(F)F)CC1 [Example 4-17-020, 1-[4-[2-[5-amino-1-[6-(2-fluorophenoxy)-4-methylpyridin-3-yl]pyrazole-4-carbonyl]-5-(2,2-difluoroethoxy)-1H-indol-6-yl]piperidin-1-yl]ethanone]
16 | 9.12 | 8.01 | 8.25 | Cc1cc(Oc2ccccc2F)ncc1-n1ncc(C(=O)c2cc3cc(OCC(F)F)c(C4CCN(S(C)(=O)=O)CC4)cc3[nH]2)c1N [Example 4-17-021, [5-amino-1-[6-(2-fluorophenoxy)-4-methylpyridin-3-yl]pyrazol-4-yl]-[5-(2,2-difluoroethoxy)-6-(1-methylsulfonylpiperidin-4-yl)-1H-indol-2-yl]methanone]
17 | 8.89 | 7.85 | 8.10 | Cc1cc(Oc2ccccc2F)ncc1-n1ncc(C(=O)c2cc3cc(OCC(F)F)c(C4CCN(S(=O)(=O)C5CC5)CC4)cc3[nH]2)c1N [Example 4-17-022, [5-amino-1-[6-(2-fluorophenoxy)-4-methylpyridin-3-yl]pyrazol-4-yl]-[6-(1-cyclopropylsulfonylpiperidin-4-yl)-5-(2,2-difluoroethoxy)-1H-indol-2-yl]methanone]
18 | 8.17 | 7.57 | 7.68 | Cc1cc(Oc2c(F)cccc2F)ncc1-n1ncc(C(=O)c2cc3cc(OCC(F)F)c(C4CCN(S(C)(=O)=O)CC4)cc3[nH]2)c1N [Example 4-17-023, [5-amino-1-[6-(2,6-difluorophenoxy)-4-methylpyridin-3-yl]pyrazol-4-yl]-[5-(2,2-difluoroethoxy)-6-(1-methylsulfonylpiperidin-4-yl)-1H-indol-2-yl]methanone]
19 | 7.96 | 7.40 | 7.60 | Cc1cc(Oc2c(F)cccc2F)ncc1-n1ncc(C(=O)c2cc3cc(OCC(F)F)c(C4CCN(S(=O)(=O)C5CC5)CC4)cc3[nH]2)c1N [Example 4-17-024, [5-amino-1-[6-(2,6-difluorophenoxy)-4-methylpyridin-3-yl]pyrazol-4-yl]-[6-(1-cyclopropylsulfonylpiperidin-4-yl)-5-(2,2-difluoroethoxy)-1H-indol-2-yl]methanone]
20 | 8.49 | 7.62 | 8.09 | Cc1cc(Oc2c(F)cccc2F)ncc1-n1ncc(C(=O)c2cc3cc(OCC(F)F)c(C4CCN(C(=O)CN)CC4)cc3[nH]2)c1N [Example 4-18-001, 2-amino-1-{4-{2-{5-amino-1-[6-(2,6-difluorophenoxy)-4-methylpyridin-3-yl]pyrazole-4-carbonyl}-5-(2,2-difluoroethoxy)-1H-indol-6-yl}piperidin-1-yl}ethanone]
21 | 8.23 | 7.54 | 7.82 | Cc1cc(Oc2ccccc2F)ccc1-n1ncc(C(=O)c2cc3cc(OC(F)F)c(C4CCN(C(=O)CN)CC4)cc3[nH]2)c1N [Example 4-18-002, 2-amino-1-[4-[2-[5-amino-1-[4-(2-fluorophenoxy)-2-methylphenyl]pyrazole-4-carbonyl]-5-(difluoromethoxy)-1H-indol-6-yl]piperidin-1-yl]ethanone]
